Data as given in ChEMBL document CHEMBL1201862, “PubChem BioAssay data set” (2004).
The source made the active and inactive calls.

Columns and labels:
[1] = DRD BJ cell killing, Ras synthetic lethality – DRD BJ fibroblasts, HRASV12, dry powder, dose response (AID 493049); type: functional, cell-based
[2] = HRAS-V12 fibroblast viability reduction – cell-based, Alamar Blue, dry powder, Ras selective lethality project, primary screen (AID 493045); type: functional; settings: BJeLR
[3] = BJeHLT cell viability loss – BJeHLT cells, dry powder, counter-screen for Ras selective lethality project, dose response (AID 493052); type: functional, cell-based; settings: Homo sapiens
[4] = BJeH cell viability loss – BJeH cells, dry powder, counter-screen for Ras selective lethality project, dose response (AID 493054); type: functional, cell-based
[5] = fluconazole-exposed Candida albicans growth modulators – fluorescence, retest, confirmation (AID 2467); type: functional, cell-based
[6] = test system: INS1; assay: INS-1E survival protection against cytokine death – cell-based, luminescence, retest, dose response (AID 449756); type: functional; settings: Rattus norvegicus;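 also: cell death triggered by IL-1 beta plus TNF-alpha plus IFN-gamma mixture; protective hits raise ATP signal compared with cytokine alone wells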
[7] = NIH-3T3 fibroblast cytotoxicity, dose response, cytotoxicity control, cell-based, fluorescence, Alamar Blue, secondary assay (AID 2327); type: functional;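 also: NIH-3T3 mouse fibroblasts cultured with fluconazole at 8 µg/mL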
[8] = biological target: G-protein coupled receptor 35 (Homo sapiens, UniProt Q9HC97); assay: inhibition of zaprinast-stimulated GPR35 beta-arrestin translocation – imaging, U2OS, beta-arrestin-GFP, zaprinast agonist, primary screen (AID 2058); type: functional;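 also: antagonist potency meaning inhibition of agonist-induced arrestin redistribution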
Sequence of G-protein coupled receptor 35 (Q9HC97 whole entry): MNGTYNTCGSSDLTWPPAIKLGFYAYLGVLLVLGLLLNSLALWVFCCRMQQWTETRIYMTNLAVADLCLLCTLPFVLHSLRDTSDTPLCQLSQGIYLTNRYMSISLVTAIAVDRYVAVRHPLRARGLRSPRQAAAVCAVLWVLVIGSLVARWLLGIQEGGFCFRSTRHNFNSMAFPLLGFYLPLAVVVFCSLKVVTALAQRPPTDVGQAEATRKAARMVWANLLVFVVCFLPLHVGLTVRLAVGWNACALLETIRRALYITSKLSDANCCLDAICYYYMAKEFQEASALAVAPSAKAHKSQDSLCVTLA

[9] = biological target: T1, G-protein coupled receptor 55 (Homo sapiens, UniProt Q9Y2T6); assay: inhibition of LPI-stimulated GPR55 beta-arrestin translocation – imaging, U2OS, beta-arrestin-GFP, LPI agonist, primary screen (AID 2013); type: functional;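 also: antagonist potency measured as reduced agonist-driven arrestin aggregation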
T1 sequence (Q9Y2T6 whole entry): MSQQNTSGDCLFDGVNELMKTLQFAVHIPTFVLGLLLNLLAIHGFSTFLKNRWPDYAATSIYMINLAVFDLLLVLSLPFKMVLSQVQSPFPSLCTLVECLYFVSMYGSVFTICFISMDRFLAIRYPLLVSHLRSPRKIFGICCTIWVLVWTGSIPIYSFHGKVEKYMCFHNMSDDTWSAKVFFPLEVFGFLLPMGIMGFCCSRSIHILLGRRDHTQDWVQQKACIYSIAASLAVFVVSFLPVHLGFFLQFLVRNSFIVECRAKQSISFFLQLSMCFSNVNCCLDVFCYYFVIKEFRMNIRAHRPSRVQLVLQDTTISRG

[10] = biological target: T2, Ubiquitin-conjugating enzyme E2 N (Homo sapiens, UniProt P61088); type: functional;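 also: Dose-response confirmation in a TR-FRET assay detecting UBC13-driven polyubiquitin chain formation, inhibition measured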
T2 sequence (P61088 whole entry): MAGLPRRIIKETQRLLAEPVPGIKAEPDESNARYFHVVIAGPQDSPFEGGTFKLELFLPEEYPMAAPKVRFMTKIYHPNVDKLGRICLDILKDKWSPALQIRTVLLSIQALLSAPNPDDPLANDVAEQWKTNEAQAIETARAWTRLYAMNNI

[11] = biological target: Acyl-homoserine lactone acylase PvdQ (Pseudomonas aeruginosa (strain LESB58), UniProt Q9I194); assay: PvdQ acylase enzyme activity blockers – biochemical, fluorescence, plate reader and imaging, cherry-picks, dose response (AID 493231)
Sequence of Acyl-homoserine lactone acylase PvdQ (Q9I194 24-193 limits assumed): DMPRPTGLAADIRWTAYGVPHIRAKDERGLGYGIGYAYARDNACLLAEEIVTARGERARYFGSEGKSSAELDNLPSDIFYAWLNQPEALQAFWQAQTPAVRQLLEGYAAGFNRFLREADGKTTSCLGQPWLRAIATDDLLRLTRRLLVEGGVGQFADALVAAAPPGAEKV
Sequence of Acyl-homoserine lactone acylase PvdQ (Q9I194 217-762 limits assumed): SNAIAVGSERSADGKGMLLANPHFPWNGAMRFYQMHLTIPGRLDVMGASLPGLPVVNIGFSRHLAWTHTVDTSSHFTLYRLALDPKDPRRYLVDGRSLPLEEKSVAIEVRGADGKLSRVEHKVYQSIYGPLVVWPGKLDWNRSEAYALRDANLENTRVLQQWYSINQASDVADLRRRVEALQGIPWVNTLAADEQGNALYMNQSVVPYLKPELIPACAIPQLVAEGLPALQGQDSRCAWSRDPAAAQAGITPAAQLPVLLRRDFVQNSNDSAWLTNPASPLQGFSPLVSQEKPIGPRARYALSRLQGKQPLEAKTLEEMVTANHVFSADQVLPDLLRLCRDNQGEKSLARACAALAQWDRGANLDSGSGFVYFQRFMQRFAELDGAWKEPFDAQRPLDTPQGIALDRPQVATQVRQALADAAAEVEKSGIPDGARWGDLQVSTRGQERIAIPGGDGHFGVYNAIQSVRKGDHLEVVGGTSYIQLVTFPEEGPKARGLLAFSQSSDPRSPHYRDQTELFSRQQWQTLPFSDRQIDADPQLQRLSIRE

[12] = biological target: T3, Protein skinhead-1 (Caenorhabditis elegans, UniProt P34707); type: functional
T3 sequence (P34707 whole entry): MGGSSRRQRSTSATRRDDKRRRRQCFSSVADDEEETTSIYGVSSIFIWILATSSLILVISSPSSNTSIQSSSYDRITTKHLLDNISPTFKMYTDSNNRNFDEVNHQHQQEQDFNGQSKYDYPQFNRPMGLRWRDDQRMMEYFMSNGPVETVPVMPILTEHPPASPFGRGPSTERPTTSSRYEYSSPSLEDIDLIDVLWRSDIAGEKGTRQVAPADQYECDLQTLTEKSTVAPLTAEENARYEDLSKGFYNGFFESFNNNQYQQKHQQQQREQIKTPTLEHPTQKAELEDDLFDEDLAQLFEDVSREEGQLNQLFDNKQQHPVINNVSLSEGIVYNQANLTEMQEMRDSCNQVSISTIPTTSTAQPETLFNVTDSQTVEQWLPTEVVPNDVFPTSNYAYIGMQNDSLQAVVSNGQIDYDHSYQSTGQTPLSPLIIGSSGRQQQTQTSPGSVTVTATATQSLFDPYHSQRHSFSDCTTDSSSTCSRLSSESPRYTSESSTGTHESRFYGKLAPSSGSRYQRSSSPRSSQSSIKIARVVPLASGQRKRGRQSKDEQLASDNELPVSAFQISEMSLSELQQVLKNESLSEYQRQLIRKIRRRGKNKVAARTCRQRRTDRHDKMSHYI

[13] = biological target: T4, Voltage-gated N-type calcium channel alpha-1B subunit/Amyloid beta A4 precursor protein-binding family A member 1 (Homo sapiens, UniProt Q00975+Q02410); type: protein assay
T4 sequence (Q00975 whole entry): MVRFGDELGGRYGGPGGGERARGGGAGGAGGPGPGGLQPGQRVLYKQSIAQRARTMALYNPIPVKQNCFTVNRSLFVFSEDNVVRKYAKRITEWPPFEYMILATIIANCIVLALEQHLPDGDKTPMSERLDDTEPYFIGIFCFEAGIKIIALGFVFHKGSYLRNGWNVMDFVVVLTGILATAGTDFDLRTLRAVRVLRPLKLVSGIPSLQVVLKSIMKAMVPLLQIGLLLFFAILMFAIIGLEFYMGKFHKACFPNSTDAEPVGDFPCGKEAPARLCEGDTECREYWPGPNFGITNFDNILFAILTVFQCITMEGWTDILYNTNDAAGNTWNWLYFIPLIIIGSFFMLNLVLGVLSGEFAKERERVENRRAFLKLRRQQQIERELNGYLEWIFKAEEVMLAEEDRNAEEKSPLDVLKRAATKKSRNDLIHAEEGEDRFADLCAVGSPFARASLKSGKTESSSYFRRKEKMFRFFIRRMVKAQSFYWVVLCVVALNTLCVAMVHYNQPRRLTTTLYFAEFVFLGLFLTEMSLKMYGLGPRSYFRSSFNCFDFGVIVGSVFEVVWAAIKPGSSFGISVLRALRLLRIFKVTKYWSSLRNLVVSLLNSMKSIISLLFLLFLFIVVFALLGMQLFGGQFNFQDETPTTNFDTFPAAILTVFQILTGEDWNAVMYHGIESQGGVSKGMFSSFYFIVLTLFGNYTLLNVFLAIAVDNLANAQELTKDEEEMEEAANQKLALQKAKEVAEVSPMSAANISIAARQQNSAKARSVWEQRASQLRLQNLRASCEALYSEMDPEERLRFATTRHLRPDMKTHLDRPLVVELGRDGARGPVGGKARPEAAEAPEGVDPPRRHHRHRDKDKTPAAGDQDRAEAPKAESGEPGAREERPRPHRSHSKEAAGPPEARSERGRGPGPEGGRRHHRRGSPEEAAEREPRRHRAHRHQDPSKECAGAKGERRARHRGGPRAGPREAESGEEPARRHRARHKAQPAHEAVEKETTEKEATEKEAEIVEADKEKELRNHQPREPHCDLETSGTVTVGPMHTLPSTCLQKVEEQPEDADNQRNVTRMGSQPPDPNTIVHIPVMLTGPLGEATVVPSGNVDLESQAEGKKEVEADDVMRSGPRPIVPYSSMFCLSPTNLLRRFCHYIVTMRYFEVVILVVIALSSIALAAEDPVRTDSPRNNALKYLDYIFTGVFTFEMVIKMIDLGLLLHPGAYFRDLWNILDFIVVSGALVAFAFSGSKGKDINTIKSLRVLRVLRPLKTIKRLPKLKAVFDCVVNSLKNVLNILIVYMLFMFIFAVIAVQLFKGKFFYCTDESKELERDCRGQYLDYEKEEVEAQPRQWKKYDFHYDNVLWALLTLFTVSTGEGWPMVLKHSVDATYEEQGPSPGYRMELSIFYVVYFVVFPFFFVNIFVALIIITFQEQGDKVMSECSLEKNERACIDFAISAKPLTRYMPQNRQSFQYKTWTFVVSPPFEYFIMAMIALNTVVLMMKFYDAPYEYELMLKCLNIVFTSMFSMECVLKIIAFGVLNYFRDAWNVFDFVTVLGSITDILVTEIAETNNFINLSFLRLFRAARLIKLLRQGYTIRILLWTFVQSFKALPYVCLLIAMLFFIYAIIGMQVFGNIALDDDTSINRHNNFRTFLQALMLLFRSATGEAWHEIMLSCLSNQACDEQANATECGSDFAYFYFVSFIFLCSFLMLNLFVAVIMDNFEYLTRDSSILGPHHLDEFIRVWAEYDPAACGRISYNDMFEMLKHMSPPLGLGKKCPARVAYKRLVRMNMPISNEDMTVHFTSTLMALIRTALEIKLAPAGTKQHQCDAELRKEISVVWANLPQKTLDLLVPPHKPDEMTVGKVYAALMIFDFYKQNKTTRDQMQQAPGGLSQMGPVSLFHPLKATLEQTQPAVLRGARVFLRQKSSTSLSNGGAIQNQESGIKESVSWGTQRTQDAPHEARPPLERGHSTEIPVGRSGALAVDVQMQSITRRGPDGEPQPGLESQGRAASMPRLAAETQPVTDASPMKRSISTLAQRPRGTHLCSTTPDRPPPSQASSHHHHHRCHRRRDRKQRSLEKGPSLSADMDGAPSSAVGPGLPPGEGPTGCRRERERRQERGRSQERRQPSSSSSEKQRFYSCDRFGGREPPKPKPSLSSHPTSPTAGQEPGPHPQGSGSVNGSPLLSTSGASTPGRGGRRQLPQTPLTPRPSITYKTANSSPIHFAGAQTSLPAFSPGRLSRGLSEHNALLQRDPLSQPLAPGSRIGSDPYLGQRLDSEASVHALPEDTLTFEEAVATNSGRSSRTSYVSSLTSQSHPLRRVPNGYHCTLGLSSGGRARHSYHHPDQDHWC
T4 sequence (Q02410 whole entry): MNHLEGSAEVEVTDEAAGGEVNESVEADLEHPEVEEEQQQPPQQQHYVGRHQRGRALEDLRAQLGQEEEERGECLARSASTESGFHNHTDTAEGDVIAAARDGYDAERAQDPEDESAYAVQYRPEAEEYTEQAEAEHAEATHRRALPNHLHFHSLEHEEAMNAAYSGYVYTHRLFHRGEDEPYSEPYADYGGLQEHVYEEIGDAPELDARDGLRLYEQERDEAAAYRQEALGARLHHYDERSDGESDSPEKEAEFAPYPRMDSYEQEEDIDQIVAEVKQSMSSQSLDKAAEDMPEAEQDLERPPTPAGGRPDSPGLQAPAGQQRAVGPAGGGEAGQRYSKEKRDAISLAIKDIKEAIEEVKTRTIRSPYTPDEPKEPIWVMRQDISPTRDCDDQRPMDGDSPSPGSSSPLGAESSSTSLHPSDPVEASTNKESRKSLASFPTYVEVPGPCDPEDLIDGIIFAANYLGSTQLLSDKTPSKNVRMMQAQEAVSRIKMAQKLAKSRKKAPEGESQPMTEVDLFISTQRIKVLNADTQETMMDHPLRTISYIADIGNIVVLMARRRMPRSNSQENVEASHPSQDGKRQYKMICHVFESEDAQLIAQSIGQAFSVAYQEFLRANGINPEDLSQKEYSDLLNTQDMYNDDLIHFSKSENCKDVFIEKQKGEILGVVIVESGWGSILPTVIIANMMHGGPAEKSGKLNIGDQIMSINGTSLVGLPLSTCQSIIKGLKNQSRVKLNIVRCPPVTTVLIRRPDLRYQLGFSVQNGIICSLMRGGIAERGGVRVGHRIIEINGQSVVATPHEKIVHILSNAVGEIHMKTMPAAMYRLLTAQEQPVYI

[14] = biological target: T4, Voltage-gated N-type calcium channel alpha-1B subunit/Amyloid beta A4 precursor protein-binding family A member 1; assay: disruptors of Mint-PDZ/N-type channel peptide interaction – biochemical, HTRF, SAR follow-up (AID 2489); type: functional
[15] = biological target: T4, Voltage-gated N-type calcium channel alpha-1B subunit/Amyloid beta A4 precursor protein-binding family A member 1; assay: disruptors of Mint-PDZ/N-type channel peptide interaction – biochemical, HTRF, set 2, SAR follow-up (AID 434980); type: functional
[16] = biological target: T4, Voltage-gated N-type calcium channel alpha-1B subunit/Amyloid beta A4 precursor protein-binding family A member 1; type: protein assay; remark: listed apart in the source
[17] = biological target: Glucose-6-phosphate 1-dehydrogenase (Homo sapiens, UniProt P11413); assay: inhibition of Homo sapiens G6PD, dose series – biochemical, fluorescence, selectivity assay for P. falciparum G6PD inhibitor project, dose response (AID 504792); type: functional
Sequence of Glucose-6-phosphate 1-dehydrogenase (P11413 whole entry): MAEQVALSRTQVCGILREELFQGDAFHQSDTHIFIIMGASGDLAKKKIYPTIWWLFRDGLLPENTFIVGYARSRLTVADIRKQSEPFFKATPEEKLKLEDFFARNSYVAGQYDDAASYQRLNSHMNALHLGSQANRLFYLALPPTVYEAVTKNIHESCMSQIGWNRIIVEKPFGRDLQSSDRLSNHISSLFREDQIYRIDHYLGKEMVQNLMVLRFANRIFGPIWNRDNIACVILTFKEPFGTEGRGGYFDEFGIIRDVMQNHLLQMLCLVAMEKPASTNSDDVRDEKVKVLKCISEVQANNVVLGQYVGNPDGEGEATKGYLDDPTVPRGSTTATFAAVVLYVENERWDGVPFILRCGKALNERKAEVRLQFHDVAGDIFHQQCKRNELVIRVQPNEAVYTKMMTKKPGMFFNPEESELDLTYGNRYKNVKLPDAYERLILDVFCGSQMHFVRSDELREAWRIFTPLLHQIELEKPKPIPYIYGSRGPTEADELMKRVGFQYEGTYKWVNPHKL

[18] = biological target: T1, G-protein coupled receptor 55; assay: selective activators of receptor GPR55 – imaging, U2OS cells, beta-arrestin-GFP redistribution, primary screen (AID 1961); type: functional
[19] = biological target: T5, Histone-lysine N-methyltransferase NSD2 (Homo sapiens, UniProt O96028); type: biochemical
T5 sequence (O96028 whole entry): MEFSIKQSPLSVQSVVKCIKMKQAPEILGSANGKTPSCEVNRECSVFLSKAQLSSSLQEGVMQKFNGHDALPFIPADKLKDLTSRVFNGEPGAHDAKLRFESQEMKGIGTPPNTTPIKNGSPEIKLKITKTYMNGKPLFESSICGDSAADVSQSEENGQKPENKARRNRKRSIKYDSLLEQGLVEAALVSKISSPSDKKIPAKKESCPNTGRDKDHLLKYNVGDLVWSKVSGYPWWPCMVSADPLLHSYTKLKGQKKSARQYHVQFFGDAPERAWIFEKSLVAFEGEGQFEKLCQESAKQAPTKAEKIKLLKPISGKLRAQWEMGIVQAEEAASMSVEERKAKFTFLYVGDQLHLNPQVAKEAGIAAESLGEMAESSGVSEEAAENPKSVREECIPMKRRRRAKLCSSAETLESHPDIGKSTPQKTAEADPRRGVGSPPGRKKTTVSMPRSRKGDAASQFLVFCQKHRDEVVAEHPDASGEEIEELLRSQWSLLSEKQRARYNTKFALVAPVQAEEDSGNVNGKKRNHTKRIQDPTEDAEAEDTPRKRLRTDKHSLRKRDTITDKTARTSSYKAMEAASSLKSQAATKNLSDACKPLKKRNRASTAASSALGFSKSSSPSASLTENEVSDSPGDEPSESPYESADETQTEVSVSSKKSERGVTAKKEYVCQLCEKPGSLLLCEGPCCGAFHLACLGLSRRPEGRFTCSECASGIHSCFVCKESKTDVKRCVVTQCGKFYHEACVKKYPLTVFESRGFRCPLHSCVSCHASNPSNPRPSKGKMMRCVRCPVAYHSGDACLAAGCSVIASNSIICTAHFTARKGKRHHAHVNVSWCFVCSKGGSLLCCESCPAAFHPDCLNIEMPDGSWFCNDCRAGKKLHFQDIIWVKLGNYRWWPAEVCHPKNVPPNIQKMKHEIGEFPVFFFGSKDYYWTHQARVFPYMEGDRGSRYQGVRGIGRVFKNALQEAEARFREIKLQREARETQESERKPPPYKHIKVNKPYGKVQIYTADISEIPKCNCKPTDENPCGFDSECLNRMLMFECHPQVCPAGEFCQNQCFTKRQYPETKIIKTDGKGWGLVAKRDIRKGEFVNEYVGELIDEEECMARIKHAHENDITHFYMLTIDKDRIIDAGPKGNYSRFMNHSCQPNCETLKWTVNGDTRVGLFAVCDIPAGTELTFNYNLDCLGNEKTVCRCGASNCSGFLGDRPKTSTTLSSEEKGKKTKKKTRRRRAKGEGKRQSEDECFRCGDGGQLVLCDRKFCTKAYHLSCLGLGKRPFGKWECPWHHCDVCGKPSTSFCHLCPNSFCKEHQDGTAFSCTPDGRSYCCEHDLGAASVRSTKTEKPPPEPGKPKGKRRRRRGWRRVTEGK

[20] = biological target: ORF 73 (Human herpesvirus 8, UniProt O40947); assay: KSHV LANA DNA-binding disruption – biochemical, fluorescence polarization, cherry-picked samples, dose response (AID 504725); set-up: species or system Human gammaherpesvirus 8;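 also: fluorescence polarization of a labeled DNA duplex reporting LANA DNA binding; potency is for inhibitors that block LANA binding to the DNA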

For `COc1ccc(N(C(=O)CCl)C(C(=O)NCCc2ccccc2)C(C)C)cc1Cl` (stereo not given), the AC50 [1] was 0.887 µM (active), the AC50 [2] was 0.895 µM (active) and the AC50 [3] was 1.3 µM (active). The AC50 [4] was 1.81 µM (active).
With `COc1ccc(C)cc1Nc1n[n+](-c2ccccc2)c(-c2ccc(N(C)C)cc2)s1` the EC50 [5] was 2.27 µM (active), the AC50 [6] was 2.53 µM (active) and the EC50 [7] was > 150 µM (inactive). For the same compound, the IC50 [8] was 3.54 µM (active) and the IC50 [9] was 3.42 µM (active).
With `Cc1cccn2c(=O)c(C=O)c(N3CCCCCC3)nc12` the IC50 [10] was > 20 µM (inactive), the AC50 [11] was 24.8 µM (active) and the IC50 [12] was > 100 µM (inactive).
For `Cc1ccc(/C=C/C(=O)NCc2ccc(S(N)(=O)=O)cc2)o1`, the IC50 [13] was 3.12 µM (active), the IC50 [14] was 3.34 µM (active) and the IC50 [15] was 4.23 µM (active). The IC50 [16] was 8.37 µM (active) and the IC50 [17] was > 80 µM (inactive).
In the case of `O=C(c1ccco1)N1CCN(c2ncnc3c2nnn3Cc2ccccc2Cl)CC1`, the EC50 [18] is reported as 13.7 µM (inactive).
For `NC(S)=NN=Cc1ccc(-c2ccc(S(=O)(=O)Nc3ncccn3)cc2)o1`, the AC50 [19] was 15.3 µM (active) and the AC50 [20] was 97.3 µM (active).
